The NIST ThermoML archive (doi:10.1016/j.fluid.2015.12.021)
Numbers after ± are expanded uncertainties.

Details: Crystal; visual observation

Compound | Normal melting temperature
O=C(O)CCCCC(=O)O [1,6-hexanedioic acid] | 153.20 ± 0.5 °C
Cc1ccc(C(=O)O)cc1 [4-methylbenzoic acid] | 179.60 ± 0.5 °C
O=C(O)c1ccccc1 [benzoic acid] | 122.4 ± 0.5 °C
c1ccc2ccccc2c1 [naphthalene] | 80.26 ± 0.5 °C
CCCCCCCCCCCCCCCCCC(=O)O [octadecanoic acid] | 69.80 ± 0.5 °C
c1ccc2c(c1)ccc1ccccc12 [phenanthrene] | 99.24 ± 0.5 °C
